{
  "source": "patent US10793567B2",
  "about": "“Bicyclic inhibitors of histone deacetylase” (Rodin Therapeutics, Inc., priority 2017, dated 2020)",
  "key": {"HDAC1": {"target": "HDAC1 (Homo sapiens (Human), UniProt Q13547)", "sequence (Q13547 whole entry)": "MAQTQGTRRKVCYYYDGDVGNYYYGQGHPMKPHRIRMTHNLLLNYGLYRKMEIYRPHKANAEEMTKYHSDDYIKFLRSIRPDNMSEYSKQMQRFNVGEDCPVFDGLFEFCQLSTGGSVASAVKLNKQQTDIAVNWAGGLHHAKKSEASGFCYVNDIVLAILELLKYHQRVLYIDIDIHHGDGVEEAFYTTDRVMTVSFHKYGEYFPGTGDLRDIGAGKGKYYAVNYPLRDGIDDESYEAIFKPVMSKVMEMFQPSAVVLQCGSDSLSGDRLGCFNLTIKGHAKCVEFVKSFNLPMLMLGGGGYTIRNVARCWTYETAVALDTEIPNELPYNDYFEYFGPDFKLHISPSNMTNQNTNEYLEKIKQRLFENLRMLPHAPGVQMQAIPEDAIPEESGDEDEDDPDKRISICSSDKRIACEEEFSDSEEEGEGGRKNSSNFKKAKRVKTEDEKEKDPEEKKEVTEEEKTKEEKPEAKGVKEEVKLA", "assay": "HDAC1 enzymatic assay (Caliper LabChip, peptide deacetylation)", "type": "biochemical", "conditions": "17 hours, 25° C.", "protocol": "The following describes an assay protocol for measuring the deacetylation of a peptide substrate by the enzymes HDAC2 or HDAC1. Enzyme, substrate, and cofactors are combined in a well of a microtiter plate and incubated for […] at 25° C. At the end of the incubation, the reaction is quenched by the addition of an SDS-containing buffer. Substrate and product are separated and quantified electrophoretically using the microfluidic-based LabChip 3000 Drug Discovery System from Caliper Life Sciences. The peptide substrate used in this assay is FAM-TSRHK(AC)KL-CONH2 (FAM is carboxyfluorescein). Peptide should be >98% purity by Capillary Electrophoresis. • 1. To a well of a 384-well plate, add 5 μL of 2× enzyme buffer. Using Labcyte Echo 550, add 100 nl compound. Enzyme and compound may be pre-incubated at this time if desired. • 2. Add 5 μL of 2× substrate buffer. • 3. Incubate plate at 25° C. for 17 hours. • 4. Terminate reaction by adding 40 μL of 1.55× stop buffer. • 5. Create job on a Caliper LabChip® 3000 Drug Discovery System. • 6. Load the plate and start electrophoresis using blue laser (480 nm) for excitation and green CCD (520 nm) for detection (CCD2). Reaction time=17 hours; Reaction temperature=25° C.\n1% DMSO (from compound) 1 μM FAM-TSRHK(AC)KL-CONH2 5 nM HDAC Enzyme (specific activity may vary from lot-to-lot, and enzyme concentration may need to be adjusted to yield˜10-20% conversion of substrate to product).\nSubstrate and product peptides present in each sample are separated electrophoretically using the LabChip 3000 capillary electrophoresis instrument. As substrate and product peptides are separated, two peaks of fluorescence are observed. Change in the relative fluorescence intensity of the substrate and product peaks is the parameter measured, reflecting enzyme activity. Capillary electrophoregramms (RDA acquisition files) are analyzed using HTS Well Analyzer software (Caliper Life Sciences). The […] in each sample is determined as the product to sum ratio (PSR): P/(S+P), where P is the peak height of the product peptide and S is the peak height of the substrate peptide. For each compound, enzyme activity is measured at various concentrations (12 concentrations of compound spaced by 3× dilution intervals). Negative control samples (0%-inhibition in the absence of inhibitor) and positive control samples (100%-inhibition, in the presence of 20 mM EDTA) are assembled in replicates of four and are used to calculate %-inhibition values for each compound at each concentration. Percent inhibition (Pinh) is determined using following equation: Pinh=(PSR0%−PSRinh)/(PSR0%−PSR100%)*100, where PSRinh is the product sum ratio in the presence of inhibitor, PSR0% is the average product sum ration in the absence of inhibitor and PSR100% is the average product sum ratio in 100%-inhibition control samples.\nThe IC50 values of inhibitors are determined by fitting the inhibition curves (Pinh versus inhibitor concentration) by 4 parameter sigmoidal dose-response model using XLfit 4 software (IBDS).\nIn the table, “A” indicates a […] of between 0.1 μM and 0.5 μM and “B” a Kd value of greater than 0.5 μM and less than or equal to 5.0 μM."}, "[1]": {"test_system": "human megakaryocyte progenitors (CFU-Mk)", "assay": "Human megakaryocyte progenitor CFC proliferation (CFU-Mk) in normal bone marrow", "type": "cell-based", "conditions": "for % Control CFU-Mk Total @ 10 uM dose: 3-point dose response; for IC50: Homo sapiens, 6-point dose response, top concentration 20 μM, read-out: CFU-Mk Total IC50", "protocol": "Compounds were tested to evaluate the potential effects on human megakaryocyte progenitor proliferation in the CFU-Mk assay. Clonogenic progenitors of the human megakaryocyte (CFU-Mk) lineage were assessed in a semi-solid, collagen-based matrix containing rhIL-3 (10 ng/mL), rhIL-6 (10 ng/mL) and rhTpo (50 ng/mL).\nNormal human bone marrow light density cells (lot #0170525), derived from normal bone marrow (NorCal Biologics, California), were stored at −152° C. until required for the assay. On the day of the experiment, the cells were thawed rapidly, the contents of each vial was diluted in 10 mL of Iscove's modified Dulbecco's medium containing 10% fetal bovine serum (IMDM+10% FBS) and washed by centrifugation (approximately 1200 r.p.m. for 10 minutes, room temperature). The supernatant was discarded and the cell pellets resuspended in a known volume of IMDM+10% FBS. A cell count (3% glacial acetic acid) and viability assessment (trypan blue exclusion test) was performed for the bone marrow sample.\nAll compounds were used as solutions in DMSO at 10 mM. Two different dosing paradigms were used depending on the study, either a six point dose response with top concentration of 20 μM, or a three point dose response with a top concentration of 10 μM. In six point dose response studies, compounds were tested at six distinct concentrations (20, 6.7, 2.2, 0.74, 0.25 and 0.082 μM), with serial dilutions prepared from the 10 mM stock concentration to achieve concentrations of 6.7, 2.2, 0.74, 0.25 and 0.082 mM. When added to the collagen-based media at 1:1000 (v/v), the final desired test concentrations were achieved. In order to generate the 20 μM final concentration, 8 μL of the 10 mM stock was added to the appropriately labeled tube. For the three point dose response studies, serial dilutions were prepared from the stock concentration to achieve concentrations of 2 and 0.4 mM. When added to the collagen-based media at 1:1000 (v/v), the final test concentrations of 10, 2 and 0.4 μM were achieved.\nClonogenic progenitors of the human megakaryocytic (CFU-Mk) lineages were set up in the media formulation described above. All compounds were added to the medium to give the final desired concentrations (20, 6.67. 2.22, 0.74, 0.25, and 0.082 μM). Solvent control cultures (containing no compound but 0.2% DMSO), as well as a standard control (containing no compound and no DMSO), were also initiated.\nHuman megakaryocyte progenitor assays were initiated with 1.8×10^5 cells per culture (lot #0170525). Following 14-16 days in culture, the cultures were transferred from the 35 mm dishes to labeled glass slides, were fixed (methanol/acetone) and then stained using an anti-human CD41 antibody and an alkaline phosphate detection system according to manufacturers' instructions. The colonies were assessed microscopically and scored by trained personnel and divided into the following categories based on size; CFU-Mk (3-20), CFU-Mk (21-49), CFU-Mk (≥50).\nThe mean±1 standard deviation of three replicate cultures was calculated for the progenitors. Two-tailed standard t-tests were performed to assess if there was a difference in the number of colonies generated between solvent control and treated cultures. Due to the potential subjectivity of colony enumeration, a p value of less than 0.01 is deemed significant. To calculate the concentration of 50% inhibition of colony growth (IC50) for each compound, a dose response curve was generated plotting the log of the compound concentration versus the percentage of control colony growth using Graphpad Prism 7.\nMegakaryocyte colony enumeration was performed by trained personnel. In addition, the distribution of colony types as well as general colony and cellular morphology was analyzed. The variance in colony number detected in replicate cultures was representative of the historical coefficient of variation for colony enumeration using these types of assays. […]"}},
  "data": [
    {"compound": "CCc1cc2c(cn1)CN(C(=O)Nc1nc(-c3cccnc3)ccc1N)C2", "note": "[Compound 8]", "values": [
      {"measurement": "IC50", "setting": "HDAC1", "result": "500 to 5000", "unit": "nM"}
    ]},
    {"compound": "CCc1ncc2c(n1)CN(C(=O)Nc1nc(-c3ccc(F)cc3)ccc1N)C2", "note": "[Compound 17]", "values": [
      {"measurement": "IC50", "setting": "HDAC1", "result": "500 to 5000", "unit": "nM"},
      {"measurement": "% Control CFU-Mk Total @ 10 uM dose", "setting": "[1]", "result": 28, "unit": "%"}
    ]},
    {"compound": "CCc1ncc2c(n1)CN(C(=O)Nc1nc(-c3cccs3)ccc1N)C2", "note": "[Compound 3]", "values": [
      {"measurement": "IC50", "setting": "HDAC1", "result": "500 to 5000", "unit": "nM"},
      {"measurement": "IC50", "setting": "[1]", "result": 2000, "unit": "nM"}
    ]},
    {"compound": "Cc1ncc2c(n1)CN(C(=O)Nc1nc(-c3ccc(F)s3)ccc1N)C2", "note": "[Compound 2]", "values": [
      {"measurement": "IC50", "setting": "HDAC1", "result": "500 to 5000", "unit": "nM"},
      {"measurement": "IC50", "setting": "[1]", "result": 2000, "unit": "nM"}
    ]},
    {"compound": "Cc1cc2c(cn1)CN(C(=O)Nc1nc(-c3cccnc3)ccc1N)C2", "note": "[Compound 12]", "values": [
      {"measurement": "IC50", "setting": "[1]", "result": "> 20000", "unit": "nM"}
    ]},
    {"compound": "COCCn1cc2c(n1)CN(C(=O)Nc1nc(-c3ccc(F)cc3F)ccc1N)C2", "note": "[Compound 9]", "values": [
      {"measurement": "IC50", "setting": "HDAC1", "result": "500 to 5000", "unit": "nM"},
      {"measurement": "IC50", "setting": "[1]", "result": 10800, "unit": "nM"}
    ]},
    {"compound": "Cc1ncc(-c2ccc(N)c(NC(=O)N3Cc4cn(CC(F)F)nc4C3)n2)s1", "note": "[Compound 5]", "values": [
      {"measurement": "IC50", "setting": "HDAC1", "result": "500 to 5000", "unit": "nM"},
      {"measurement": "% Control CFU-Mk Total @ 10 uM dose", "setting": "[1]", "result": 36, "unit": "%"}
    ]},
    {"compound": "Nc1ccc(-c2ccc(F)cc2)nc1NC(=O)N1Cc2cn(C3COC3)nc2C1", "note": "[Compound 1]", "values": [
      {"measurement": "IC50", "setting": "HDAC1", "result": "500 to 5000", "unit": "nM"}
    ]},
    {"compound": "Cc1ncc2c(n1)CN(C(=O)Nc1nc(-c3ccc(F)cc3)ccc1N)C2", "note": "[Compound 14]", "values": [
      {"measurement": "IC50", "setting": "HDAC1", "result": "500 to 5000", "unit": "nM"},
      {"measurement": "% Control CFU-Mk Total @ 10 uM dose", "setting": "[1]", "result": 31, "unit": "%"}
    ]}
  ]
}
